Reference: patent publication US6733690B1, “Laterally substituted curable liquid crystals” (Rolic AG, priority 1999, dated 2004)

Key:
Solubility in MPK = type: physicochemical; settings: solvent MPK

| Solubility in MPK (Solubility in MPK) | melting point | Structure (SMILES) |
| --- | --- | --- |
| 33.2% | 54 °C | C=CC(=O)OCCCCCCOc1ccc(C(=O)Oc2ccc(OC(=O)c3ccc(OCCCCCCOC(=O)C=C)cc3)c(C(=O)OCCOCCOc3ccc(-c4ccc(C#N)cc4)cc3)c2)cc1 |
| 7.2% | 72 °C | C=CC(=O)OCCCCCCOc1ccc(C(=O)Oc2ccc(OC(=O)c3ccc(OCCCCCCOC(=O)C=C)cc3)c(C(=O)OCCCCCCCCOc3ccc(-c4ccc(C#N)cc4)cc3)c2)cc1 |
